Measurements reported in US20140107316A1, “DRUG DELIVERY CONJUGATES CONTAINING UNNATURAL AMINO ACIDS AND METHODS FOR USING” (priority 2012, published 2014).
pIC50: −log10 of the molar value. Read-outs that look alike come from different tables or passages of the source.

Legend:
KB tumors = assay: KB tumor assay in nu/nu mice; conditions: for CR (%) / Cures (%) / PR (%) / Toxicity Avg. Weight Loss / Toxicity Deaths (%): TIW, 2 weeks; for toxicity in relation to anti-tumor effect in mice: mouse, in vivo
Protocol: Inhibition of Tumor Growth in Mice. Four to seven week-old mice (Balb/c or nu/nu strains) were purchased from Harlan Sprague Dawley, Inc. (Indianapolis, Ind.). Normal rodent chow contains a high concentration of folic acid (6 mg/kg chow); accordingly, mice used were maintained on the folate-free diet (Harlan diet #TD00434) for 1 week before tumor implantation to achieve serum folate concentrations close to the range of normal human serum. For tumor cell inoculation, 1×10^6 M109 cells (Balb/c strain) or 1×10^6 KB cells (nu/nu strain) in 100 μL were injected in the subcutis of the dorsal medial area. Tumors were measured in two perpendicular directions every 2-3 days using a caliper, and their volumes were calculated as 0.5×L×W^2, where L=measurement of longest axis in mm and W=measurement of axis perpendicular to L in mm. […] Dosing solutions were prepared fresh each day in PBS and administered through the lateral tail vein of the mice.
General KB Tumor Assay. The anti-tumor activity of the compounds described herein, when administered intravenously (i.v.) to tumor-bearing animals, was evaluated in nu/nu mice bearing subcutaneous KB tumors. Approximately 8 days post tumor inoculation in the subcutis of the right axilla with 1×10^6 KB cells (average tumor volume at to=50-100 mm^3), in mice (5/group) were injected i.v. three times a week (TIW), for 3 weeks with […] of the drug delivery conjugate or with an equivalent dose volume of PBS (control), unless otherwise indicated. Tumor growth was measured using calipers at 2-day or 3-day intervals in each treatment group. Tumor volumes were calculated using the equation V=a×b^2/2, where “a” is the length of the tumor and “b” is the width expressed in millimeters.
Toxicity as Measured by Weight Loss. The percentage weight change of the mice was determined in mice (5 mice/group) on selected days post-tumor inoculation (PTI), and graphed.
In vivo activity against tumors.

cells in culture = assay: Cytotoxicity to cells in culture; type: cell-based; conditions: read-out: typical IC50, cells in culture
[1] = tested on: folate receptor-positive KB cells
Protocol: Inhibition of Cellular DNA Synthesis. The compounds described herein were evaluated using an in vitro cytotoxicity assay that predicts the ability of the drug to inhibit the growth of folate receptor-positive KB cells. The compounds were comprised of folate linked to a respective chemotherapeutic drug, as prepared according to the protocols described herein. The KB cells were exposed for up to 7 h at 37° C. to the indicated concentrations of folate-drug conjugate in the absence or presence of at least a 100-fold excess of folic acid. The cells were then rinsed once with fresh culture medium and incubated in fresh culture medium for 72 hours at 37° C. Cell viability was assessed using a ^3H-thymidine incorporation assay.
In vitro test against the various cancer cell lines. Cells are heavily seeded in 24-well Falcon plates and allowed to form nearly confluent monolayers overnight. Thirty minutes prior to the addition of the test compound, spent medium is aspirated from all wells and replaced with fresh folate-deficient RPMI medium (FFRPMI). A subset of wells are designated to receive media containing 100 μM folic acid. The cells in the designated wells are used to determine the targeting specificity. […] Following one rinse with 1 mL of fresh FFRPMI containing 10% heat-inactivated fetal calf serum, each well receives 1 mL of medium containing increasing concentrations of test compound (4 wells per sample) in the presence or absence of 100 μM free folic acid as indicated. Treated cells are pulsed for 2 h at 37° C., rinsed 4 times with 0.5 mL of media, and then chased in 1 mL of fresh medium up to 70 h. Spent medium is aspirated from all wells and replaced with fresh medium containing 5 μCi/mL ^3H-thymidine. Following a further 2 h 37° C. incubation, cells are washed 3 times with 0.5 mL of PBS and then treated with 0.5 mL of ice-cold 5% trichloroacetic acid per well. After 15 min, the trichloroacetic acid is aspirated and the cell material solubilized by the addition of 0.5 mL of 0.25 N sodium hydroxide for 15 min. A 450 μL aliquot of each solubilized sample is transferred to a scintillation vial containing 3 mL of Ecolume scintillation cocktail and then counted in a liquid scintillation counter. Final tabulated results are expressed as the percentage of ^3H-thymidine incorporation relative to untreated controls.
Folate receptor expressing cells. […] EC1456 was evaluated from 0.1-100 nM.

[2] = Maximum tolerated dose (MTD); type: in vivo, female Sprague-Dawley rats; conditions: rat, in vivo, iv, BIW, 2 wks
Excerpt: Maximum tolerated dose (MTD). […] For Example, EC1456 has a MTD of at least 0.51 μmol/kg and EC0531 has a MTD of 0.33 μmol/kg, […] when administered by i.v., BIW, 2 wks in female Sprague-Dawley rats. Histopathologic changes were not observed with doses of EC1456 at or below the MTD.

[3] = tested on: collagen-induced arthritis; assay: Collagen-Induced Arthritis (CIA) Model; type: in vivo, female Lewis rats; conditions: ten consecutive subcutaneous doses days 10-19; 500 nmol/kg induction, 100 nmol/kg maintenance
Protocol: Collagen-Induced Arthritis (CIA) Model. The collagen-induced arthritis (CIA) was induced in female Lewis rats on folate-deficient diet (Harlan Teklad, Indianapolis, Ind.). On Day 0, rats were immunized with 500 μg of bovine collagen Type II (Chondrex, Redmond, Wash.) formulated with Freund's complete adjuvant. A booster immunization was given on Day 7 with 250 μg of the bovine collagen formulated with Freund's incomplete adjuvant. Arthritis disease was assessed by a qualitative clinical score system described by the manufacturer (Chondrex, Redmond, Wash.): 0=normal, 1=Mild, but definite redness and swelling of the ankle or wrist, or apparent redness and swelling limited to individual digits, regardless of the number of affected digits, 2=Moderate redness and swelling of ankle of wrist, 3=Severe redness and swelling of the entire paw including digits, and 4=Maximally inflamed limb with involvement of multiple joints. On Day 10 post first immunization, rats were distributed evenly (according to the arthritis score) across the control and treatment groups. The CIA rats were given ten consecutive subcutaneous doses of EC0746 and methotrexate on days 10-19. For both drugs, an induction dose (500 nmol/kg) was given on days 10 and 15 and a maintenance dose (100 nmol/kg) was given on days 11-14 and 16-19. […] The arthritis score and animal body weight were recorded five times a week.

[4] = Plasma stability / drug release after dosing in rats; type: in vivo; conditions: after a AC dose in rats
Excerpt: EC1496 releases ca. 50% less drug than the comparative example EC0746 after a AC dose in rats.

[5] = 1.0 μmol/kg (2 doses), only 2 doses due to toxicity

## CCCC(=O)OCN(C(=O)[C@@H](NC(=O)[C@H]1CCCCN1C)[C@@H](C)CC)[C@H](C[C@@H](OC(C)=O)c1nc(C(=O)N[C@@H](Cc2ccc(O)cc2)C[C@H](C)C(=O)O)cs1)C(C)C [Tubulysin B, tubulysin B]
KB tumors; 0.1 μmol/kg (4 doses)
  CR (%): 0%
  Cures (%): 0%
  PR (%): 0%
  Toxicity Avg. Weight Loss: >20%
  Toxicity Deaths (%): 100%
KB tumors; 0.2 μmol/kg (3 doses)
  CR (%): 0%
  Cures (%): 0%
  PR (%): 0%
  Toxicity Avg. Weight Loss: >18%
  Toxicity Deaths (%): 100%
KB tumors; 0.5 μmol/kg (1 dose)
  CR (%): 0%
  Cures (%): 0%
  PR (%): 0%
  Toxicity Avg. Weight Loss: >15%
  Toxicity Deaths (%): 100%
KB tumors
  toxicity in relation to anti-tumor effect in mice: dose-limiting toxicities in mice at levels that did not produce measurable anti-tumor effect
Cells in culture
  pIC50: ~9.00

## N=c1[nH]c(N)nc2ncc(CNc3ccc(C(=O)N[C@@H](CCC(=O)NNC(=O)OCCSSC[C@H](NC(=O)[C@H](CCC(=O)NC[C@H](O)[C@@H](O)[C@H](O)[C@H](O)CO)NC(=O)[C@H](CCC(=O)O)NC(=O)[C@H](CCC(=O)NC[C@H](O)[C@@H](O)[C@H](O)[C@H](O)CO)NC(=O)[C@H](CCC(=O)O)NC(=O)[C@H](CCC(=O)NC[C@H](O)[C@@H](O)[C@H](O)[C@H](O)CO)NC(=O)CC[C@H](NC(=O)c4ccc(NCc5cnc6nc(N)[nH]c(=O)c6n5)cc4)C(=O)O)C(=O)O)C(=O)O)cc3)nc12 [EC0531, reference compound]
[1]; difference in IC50 between competed and non-competed group
  In vitro specificity (fold): 237 fold
[1]; read-out: 50% competition, competed group (excess folic acid)
  pIC50: 6.45
[1]; read-out: In vitro IC50
  pIC50: 8.82
KB tumors
  In vivo activity: Complete
[2]
  MTD at 2 weeks: 0.33 µmol/kg

## CCCC(=O)OCN(C(=O)[C@@H](NC(=O)[C@H]1CCCCN1C)C(C)CC)[C@H](C[C@H](OC(C)=O)c1nc(C(=O)N[C@H](Cc2ccc(O)cc2)C[C@H](C)C(=O)NNC(=O)OCCSSC[C@H](NC(=O)[C@H](CCC(=O)NC[C@H](O)[C@@H](O)[C@H](O)[C@H](O)CO)NC(=O)[C@H](CCC(=O)O)NC(=O)[C@H](CCC(=O)NC[C@H](O)[C@@H](O)[C@H](O)[C@H](O)CO)NC(=O)[C@H](CCC(=O)O)NC(=O)[C@H](CCC(=O)NC[C@H](O)[C@@H](O)[C@H](O)[C@H](O)CO)NC(=O)CC[C@H](NC(=O)c2ccc(NCc3cnc4nc(N)[nH]c(=O)c4n3)cc2)C(=O)O)C(=O)O)cs1)C(C)C (some centres unmarked) [EC0746]
[3]
  effect on collagen-induced arthritis (arthritis score): effective

## CCCC(=O)OCN(C(=O)[C@@H](NC(=O)[C@H]1CCCCN1C)C(C)CC)[C@H](C[C@@H](OC(C)=O)c1nc(C(=O)N[C@@H](Cc2ccc(O)cc2)C[C@H](C)C(=O)NN)cs1)C(C)C (some centres unmarked) [TubBH, tubulysin B hydrazide]
KB tumors; 0.5 μmol/kg
  CR (%): 0%
  Cures (%): 0%
  PR (%): 0%
  Toxicity Avg. Weight Loss: <5.5%
  Toxicity Deaths (%): 0%
KB tumors; 0.75 μmol/kg
  CR (%): 0%
  Cures (%): 0%
  PR (%): 0%
  Toxicity Avg. Weight Loss: >10%
  Toxicity Deaths (%): 20%
KB tumors; [5]
  CR (%): 0%
  Cures (%): 0%
  PR (%): 0%
  Toxicity Avg. Weight Loss: >15%
  Toxicity Deaths (%): 20%
KB tumors
  toxicity in relation to anti-tumor effect in mice: dose-limiting toxicities in mice at levels that did not produce measurable anti-tumor effect
Cells in culture
  pIC50: ~9.00

## N=c1[nH]c(N)nc2ncc(CNc3ccc(C(=O)N[C@@H](CCC(=O)NNC(=O)OCCSSC[C@@H](NC(=O)[C@H](CCC(=O)NC[C@H](O)[C@@H](O)[C@H](O)[C@H](O)CO)NC(=O)[C@@H](CCC(=O)O)NC(=O)[C@H](CCC(=O)NC[C@H](O)[C@@H](O)[C@H](O)[C@H](O)CO)NC(=O)[C@@H](CCC(=O)O)NC(=O)[C@H](CCC(=O)NC[C@H](O)[C@@H](O)[C@H](O)[C@H](O)CO)NC(=O)CC[C@@H](NC(=O)c4ccc(NCc5cnc6nc(N)[nH]c(=O)c6n5)cc4)C(=O)O)C(=O)O)C(=O)O)cc3)nc12 [EC1496]
[4]
  less drug released than comparative example EC0746: ca. 50%
